The source of these data is patent US20260324636A1, “COMPOSITION FOR PROVIDING PLANT WITH STRESS RESISTANCE” (KIRIN HOLDINGS KABUSHIKI KAISHA, priority 2022, published 2026).

This test relates to hop. The test is described as follows: Oxidation stress resistance against methyl viologen in hop leaves (leaf chlorosis, chlorophyll content), Example 10. Type of test: in vivo, hop (variety: Hersbrucker). Conditions: 1 mM, 5 μM methyl viologen, 22° C. 4 days. How it is done: A hop strain (the variety: Hersbrucker) was used as an experimental material. Hop seedlings grown in the field of Kirin Brewery Company, Limited in Iwate, Japan were used.
A Murashige and Skoog Plant Salt Mixture 2.2 g and glucose 20 g (FUJIFILM Wako) were dissolved in 1 l of pure water, and a pH was adjusted to 5.8. Thereafter, agar (8 g (Ina Food Industry Co., Ltd.) was dissolved and autoclaved (121° C., 15 minutes).
A Murashige and Skoog Plant Salt Mixture 2.2 g and glucose 20 g were dissolved in 1 l of pure water, a pH was adjusted to 5.8, and the resultant was autoclaved (121° C., 20 minutes).
Tissue-cultured seedlings required for evaluation of oxidation stress response of a hop were prepared in a laboratory. […]
Leaf chlorosis is observed in plants upon oxidation stress exposure. Thus, an extent of chlorosis was evaluated by measuring the content of the green pigment chlorophyll in leaves.
Plants in a well (3 leaves) was transferred to a 1.5-ml tube containing 1 ml of N,N-dimethylformamide and incubated at 4° C. in the dark for 1 day to extract the chlorophyll. The absorbance of the extract was measured at 647 nm and 664 nm, respectively, to calculate the chlorophyll content on a leaf fresh weight basis. The chlorophyll content was calculated in the same manner as in Example 1.

For `CC(=O)N[C@@H](CCC(=O)O)C(=O)O` [N-acetylglutamic acid], the “leaf chlorosis in MV-treated group, compared with control group” value is “more suppressed”. Moreover, the “decrease in the chlorophyll content in the MV-treated groups, compared with the control group” value (leaf fresh weight basis) is reported as “suppressed”.
